pIC50: −log10 of the molar value.
Biological target: P. falciparum apicoplast DNA polymerase (Pf-apPOL) (Plasmodium falciparum, UniProt Q8ILY1)
Experiment: Fluorescence-based high-throughput DNA polymerase assay (molecular beacon), primary screen and dose-response
Assay type: biochemical
Method: The HT assay employs a molecular beacon, a stem-loop DNA template with a Cy3 dye and the Black Hole Quencher on the 3′ and 5′ ends of the DNA, respectively. Pf-apPOL concentration is based on a calculated absorptivity of ε280 = 56750 M^−1 cm^−1. Reactions were carried out at 25 °C, using Corning 3575 […] (well-volume, 20 µL). Assays testing for compound inhibition composed of reaction buffer (pH 7.9 in 50 mM potassium acetate, 20 mM Tris-acetate and 10 mM magnesium acetate), Pf-apPOL (20 nM), DNA substrate (20 nM), dNTPs (6 µM), and compound (10 µM in DMSO). The DNA and nucleotide substrates (dNTPs) were at concentrations of 20 nM and 6 µM, respectively, in the assay. Pf-apPOL was incubated in the reaction buffer with dNTPs and the compound of interest (10 µM, in the assay) at 25 °C for 10 min. The DNA substrate was then added and the reaction was allowed to proceed for 90 min at 25 °C.
Each assay plate contained 16 negative controls (no Pf-apPOL, DMSO present) and 16 positive controls (Pf-apPOL present, no DMSO). The fluorescence of each well was determined using a BioTek Synergy Neo fluorescence plate reader using excitation and emission wavelengths of 555 and 570 nm, respectively.
In the above, Min is the average of fluorescence emission of the negative controls (substrate only), Max the average fluorescence emission from the positive controls (enzyme + substrate), and Test the emission from the assays in the presence of compounds (enzyme + compound + substrates). […] […] The IC50 of each compound was determined using Equation (2): (2) IC50= Vmax/(1+ (I/IC50)^n)
In the above, n measures cooperativity, with n > 1 indicating synergistic binding of more than a single molecule of the compound.
To identify apPOL inhibitors we utilised our previously developed high-throughput DNA polymerase assay. The HT assay is based on a molecular beacon DNA template that forms a stem-loop with a Cy3 dye and the Black Hole Quencher on the 3′ and 5′ ends of the DNA, respectively. DNA polymerase activity extends an annealed primer through the stem region, displacing the fluorophore from the quencher, thereby increasing its fluorescence (Figure 1(A)). The assay accurately recapitulates the kinetic behaviour of apPOL, as measured through more conventional low-throughput gel-based assays. The Z′ factor for the assay described here was 0.9 across all plates (data not shown).
Figure 1. High-throughput screening. (A) The fluorescent-based DNA polymerase assay used to screen the compound libraries. The DNA template strand is a hairpin loop with a primer annealed to the loop. The 3’ end of the primer is 11 bases away from the 6 bp duplex. Strand displacement activity of the DNA polymerase separates the Cy3 dye from the Black hole quencher leading to an increase in fluorescent signal. (B) The high-throughput assay workflow. The DNA polymerase is incubated with […] compound for 10 min prior to addition of the hairpin substrate. The reaction is quenched at 3 different time points and the fluorescent signal is measured and % inhibition is determined using the provided equation.

[1] = supplemental file 2, sheet IC50 nontoxic compounds; Pf-apPOL

P. falciparum apicoplast DNA polymerase (Pf-apPOL), sequence (Q8ILY1 entry or part of it): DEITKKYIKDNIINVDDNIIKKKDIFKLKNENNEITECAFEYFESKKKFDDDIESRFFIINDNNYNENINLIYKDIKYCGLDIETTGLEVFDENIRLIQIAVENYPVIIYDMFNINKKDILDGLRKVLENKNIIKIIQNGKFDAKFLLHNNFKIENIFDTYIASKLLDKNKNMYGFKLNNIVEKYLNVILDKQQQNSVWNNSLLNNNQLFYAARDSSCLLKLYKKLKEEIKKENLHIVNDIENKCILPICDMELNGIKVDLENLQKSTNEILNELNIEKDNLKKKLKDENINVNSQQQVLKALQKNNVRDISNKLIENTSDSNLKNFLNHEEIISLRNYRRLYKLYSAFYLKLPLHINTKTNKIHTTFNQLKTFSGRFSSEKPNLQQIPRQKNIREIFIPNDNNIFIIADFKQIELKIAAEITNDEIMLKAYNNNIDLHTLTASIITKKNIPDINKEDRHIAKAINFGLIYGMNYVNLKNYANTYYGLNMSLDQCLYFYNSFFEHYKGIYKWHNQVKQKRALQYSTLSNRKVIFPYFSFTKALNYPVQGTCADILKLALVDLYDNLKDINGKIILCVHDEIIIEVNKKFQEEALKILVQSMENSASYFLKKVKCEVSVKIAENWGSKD

Structure (SMILES): O=C(Cc1cccs1)N1CCN(c2nc(CN3CCOCC3)cs2)CC1 [Molecule 35, O=C(N1CCN(CC1)c1scc(n1)CN1CCOCC1)Cc1cccs1]
- % inhibition Apo pol 10' (DRC-1; concentration 2.5; 10'): -2.34%
- % inhibition Apol 90' (DRC-1; concentration 2.5; 90'): -6%
- % inhibition apPOL 180' (DRC-1; concentration 2.5; 180'): -10%
- % inhibition Apo pol 10' (DRC-1; concentration 5; 10'): 14%
- % inhibition Apol 90' (DRC-1; concentration 5; 90'): 6.43%
- % inhibition apPOL 180' (DRC-1; concentration 5; 180'): -2.23%
- % inhibition Apo pol 10' (DRC-1; concentration 10; 10'): 46%
- % inhibition Apol 90' (DRC-1; concentration 10; 90'): 34%
- % inhibition apPOL 180' (DRC-1; concentration 10; 180'): 19%
- % inhibition Apo pol 10' (DRC-1; concentration 20; 10'): 76%
- % inhibition Apol 90' (DRC-1; concentration 20; 90'): 68%
- % inhibition apPOL 180' (DRC-1; concentration 20; 180'): 53%
- % inhibition Apo pol 10' (DRC-1; concentration 40; 10'): 83%
- % inhibition Apol 90' (DRC-1; concentration 40; 90'): 83%
- % inhibition apPOL 180' (DRC-1; concentration 40; 180'): 81%
- % inhibition Apo pol 10' (DRC-1; concentration 80 (unit not given); 10'): 83%
- % inhibition Apol 90' (DRC-1; concentration 80; 90'): 86%
- % inhibition apPOL 180' (DRC-1; concentration 80; 180'): 88%
- % inhibition Apo pol 5' (DRC-2; 5'; concentration 2.5): 8%
- % inhibition Apo pol 5' (DRC-2; 5'; concentration 5): 19%
- % inhibition Apo pol 5' (DRC-2; 5'; concentration 10): 35%
- % inhibition Apo pol 5' (DRC-2; 5'; concentration 40): 46%
- % inhibition Apo pol 5' (DRC-2; 5'; concentration 80): 35%
- % inhibition ApPOL 90' (DRC-2; 90'; concentration 2.5): 8%
- % inhibition ApPOL 90' (DRC-2; 90'; concentration 40): 69%
- % inhibition apPOL 180' (DRC-2; 180'; concentration 40): 69%
- % inhibition Apo pol 5' (DRC-2; concentration 2.5; 5'): 8%
- % inhibition Apol 40' (DRC-2; concentration 2.5; 40'): 9%
- % inhibition ApPOL 90' (DRC-2; concentration 2.5; 90'): 8%
- % inhibition apPOL 180' (DRC-2; concentration 2.5; 180'): 1.49%
- % inhibition Apo pol 5' (DRC-2; concentration 5; 5'): 19%
- % inhibition Apol 40' (DRC-2; concentration 5; 40'): 22%
- % inhibition ApPOL 90' (DRC-2; concentration 5; 90'): 20%
- % inhibition apPOL 180' (DRC-2; concentration 5; 180'): 13%
- % inhibition Apo pol 5' (DRC-2; concentration 10; 5'): 35%
- % inhibition Apol 40' (DRC-2; concentration 10; 40'): 43%
- % inhibition ApPOL 90' (DRC-2; concentration 10; 90'): 41%
- % inhibition apPOL 180' (DRC-2; concentration 10; 180'): 31%
- % inhibition Apo pol 5' (DRC-2; concentration 20; 5'): 45%
- % inhibition Apol 40' (DRC-2; concentration 20; 40'): 61%
- % inhibition ApPOL 90' (DRC-2; concentration 20; 90'): 62%
- % inhibition apPOL 180' (DRC-2; concentration 20; 180'): 56%
- % inhibition Apo pol 5' (DRC-2; concentration 40; 5'): 46%
- % inhibition Apol 40' (DRC-2; concentration 40; 40'): 64%
- % inhibition ApPOL 90' (DRC-2; concentration 40; 90'): 69%
- % inhibition apPOL 180' (DRC-2; concentration 40; 180'): 69%
- % inhibition Apo pol 5' (DRC-2; concentration 80; 5'): 35%
- % inhibition Apol 40' (DRC-2; concentration 80; 40'): 59%
- % inhibition ApPOL 90' (DRC-2; concentration 80; 90'): 65%
- % inhibition apPOL 180' (DRC-2; concentration 80; 180'): 70%
- % inhibition Apo pol 10' (first dose-response set; 10'; concentration 10): 46%
- % inhibition Apo pol 10' (first dose-response set; 10'; concentration 40): 83%
- % inhibition Apo pol 10' (first dose-response set; 10'; concentration 80 (unit not given)): 83%
- % inhibition Apol 90' (first dose-response set; 90'; concentration 40): 83%
- % inhibition apPOL 180' (first dose-response set; 180'; concentration 10): 19%
- DNA Pol (primary screen value of the 186 hits; unit not given; 90 min, 10 µM): 37
- DNA Pol (primary screen value; head prints only 'DNA Pol'; 90 min, 10 µM): 37

Structure (SMILES): O=C(Cn1ccc2c(=O)[nH]ccc21)Nc1cccc(Cl)c1 [Molecule 23]
- pIC50 [1]: 5.04

Structure (SMILES): COc1ccccc1CCC(=O)N1CCc2c(nc3cc(-c4ccccc4)[nH]n3c2=O)C1 [Molecule 7]
- pIC50 [1]: 5.14

Structure (SMILES): CN(C)C=CC(=O)c1ccccn1 [Molecule 64, CN(C=CC(=O)c1ccccn1)C]
- DNA Pol ('DNA Pol'; screening value, unit not given; 90 min, 10 µM): 79
- % inhibition Apo pol 10' (DRC-1; 10'; concentration 2.5): 5.279%
- % inhibition Apo pol 10' (DRC-1; 10'; concentration 5): 16.5803%
- % inhibition Apo pol 10' (DRC-1; 10'; concentration 10): 34.5693%
- % inhibition Apo pol 10' (DRC-1; 10'; concentration 20): 50.9232%
- % inhibition Apo pol 10' (DRC-1; 10'; concentration 40): 69.0219%
- % inhibition Apo pol 10' (DRC-1; 10'; concentration 80): 79.1475%
- % inhibition Apol 90' (DRC-1; 90'; concentration 2.5): 1.734%
- % inhibition Apol 90' (DRC-1; 90'; concentration 5): 6.501%
- % inhibition Apol 90' (DRC-1; 90'; concentration 10): 20.4436%
- % inhibition Apol 90' (DRC-1; 90'; concentration 20): 33.6237%
- % inhibition Apol 90' (DRC-1; 90'; concentration 40): 52.2034%
- % inhibition Apol 90' (DRC-1; 90'; concentration 80): 65.606%
- % inhibition apPOL 180' (DRC-1; 180'; concentration 2.5): -0.4261%
- % inhibition apPOL 180' (DRC-1; 180'; concentration 5): -0.5089%
- % inhibition apPOL 180' (DRC-1; 180'; concentration 10): 10.9691%
- % inhibition apPOL 180' (DRC-1; 180'; concentration 20): 21.4909%
- % inhibition apPOL 180' (DRC-1; 180'; concentration 40): 39.455%
- % inhibition apPOL 180' (DRC-1; 180'; concentration 80): 54.1589%
- % inhibition Apo pol 5' (DRC-2, 5', concentration 2.5): 10%
- % inhibition Apo pol 5' (DRC-2, 5', concentration 5): 18%
- % inhibition Apo pol 5' (DRC-2, 5', concentration 10): 34%
- % inhibition Apo pol 5' (DRC-2, 5', concentration 20): 44%
- % inhibition Apo pol 5' (DRC-2, 5', concentration 40): 50%
- % inhibition Apo pol 5' (DRC-2, 5', concentration 80): 54%
- % inhibition Apol 40' (DRC-2, 40', concentration 2.5): 6%
- % inhibition Apol 40' (DRC-2, 40', concentration 5): 12%
- % inhibition Apol 40' (DRC-2, 40', concentration 10): 27%
- % inhibition Apol 40' (DRC-2, 40', concentration 20): 41%
- % inhibition Apol 40' (DRC-2, 40', concentration 40): 53%
- % inhibition Apol 40' (DRC-2, 40', concentration 80): 64%
- % inhibition ApPOL 90' (DRC-2, 90', concentration 2.5): 0.656%
- % inhibition ApPOL 90' (DRC-2, 90', concentration 5): 7%
- % inhibition ApPOL 90' (DRC-2, 90', concentration 10): 21%
- % inhibition ApPOL 90' (DRC-2, 90', concentration 20): 36%
- % inhibition ApPOL 90' (DRC-2, 90', concentration 40): 50%
- % inhibition ApPOL 90' (DRC-2, 90', concentration 80): 65%
- % inhibition apPOL 180' (DRC-2, 180', concentration 2.5): -5%
- % inhibition apPOL 180' (DRC-2, 180', concentration 5): -1.23%
- % inhibition apPOL 180' (DRC-2, 180', concentration 10): 9%
- % inhibition apPOL 180' (DRC-2, 180', concentration 20): 23%
- % inhibition apPOL 180' (DRC-2, 180', concentration 40): 42%
- % inhibition apPOL 180' (DRC-2, 180', concentration 80): 63%
- % inhibition Apo pol 5' (conc 40 (unit not given); 5'; DRC-2): 50%
- % inhibition ApPOL 90' (conc 40 (unit not given); 90'; DRC-2): 50%
- DNA Pol (primary screen hit value, DNA Pol (186 hits); 90 min, 10 µM): 79

Structure (SMILES): Cc1cc(C)c2c(O)nc(SCC(=O)c3ccc(O)c(O)c3)nc2n1 [Molecule 88]
- pIC50 [1]: > 5.60

— publication PMC9090415, “Discovery of small molecule inhibitors of Plasmodium falciparum apicoplast DNA polymerase” (Journal of Enzyme Inhibition and Medicinal Chemistry, 2022)
